Data taken from ChEMBL document CHEMBL4804284.

Key:
Parameters in all cases: scale not given: the % may be the effect or the level left
[1] = molecular target: Protein kinase C delta type (Homo sapiens) (UniProt Q05655); assay: Inhibition of DNA-tagged human PRKCD assessed as percent of control at 50000 nM by qPCR analysis relative to control
[2] = molecular target: Ribosomal protein S6 kinase alpha-6 (Homo sapiens) (UniProt Q9UK32); assay: Inhibition of DNA-tagged human N-terminal RSK4 kinase domain 1 assessed as percent of control at 50000 nM by qPCR analysis relative to control
[3] = molecular target: Serine/threonine-protein kinase TAO1 (Homo sapiens) (UniProt Q7L7X3); assay: Inhibition of DNA-tagged human TAOK1 assessed as percent of control at 50000 nM by qPCR analysis relative to control
[4] = molecular target: Macrophage-stimulating protein receptor (Homo sapiens) (UniProt Q04912); assay: Inhibition of DNA-tagged human MST1R assessed as percent of control at 50000 nM by qPCR analysis relative to control
[5] = molecular target: Cytoplasmic tyrosine-protein kinase BMX (Homo sapiens) (UniProt P51813); assay: Inhibition of DNA-tagged human BMX assessed as percent of control at 50000 nM by qPCR analysis relative to control
Sequence of Cytoplasmic tyrosine-protein kinase BMX (Homo sapiens) (P51813 whole entry): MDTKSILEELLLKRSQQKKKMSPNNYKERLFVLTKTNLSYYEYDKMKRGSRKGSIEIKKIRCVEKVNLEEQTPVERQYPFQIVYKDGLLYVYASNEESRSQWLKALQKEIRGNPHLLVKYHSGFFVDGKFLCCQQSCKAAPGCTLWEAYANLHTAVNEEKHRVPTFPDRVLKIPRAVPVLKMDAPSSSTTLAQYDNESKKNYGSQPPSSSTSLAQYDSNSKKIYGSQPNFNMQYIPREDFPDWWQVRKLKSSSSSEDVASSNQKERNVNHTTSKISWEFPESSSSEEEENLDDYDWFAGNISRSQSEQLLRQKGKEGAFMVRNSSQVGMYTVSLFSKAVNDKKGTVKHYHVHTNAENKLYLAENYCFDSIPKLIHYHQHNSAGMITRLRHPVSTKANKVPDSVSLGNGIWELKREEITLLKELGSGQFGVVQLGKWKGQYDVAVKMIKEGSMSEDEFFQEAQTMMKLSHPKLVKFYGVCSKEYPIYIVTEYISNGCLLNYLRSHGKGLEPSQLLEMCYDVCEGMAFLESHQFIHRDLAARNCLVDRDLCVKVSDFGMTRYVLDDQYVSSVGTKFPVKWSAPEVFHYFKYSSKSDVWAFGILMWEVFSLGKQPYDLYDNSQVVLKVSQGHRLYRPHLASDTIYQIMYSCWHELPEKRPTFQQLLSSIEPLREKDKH

[6] = molecular target: Serine/threonine-protein kinase pim-1 (Homo sapiens) (UniProt P11309); assay: Inhibition of DNA-tagged human PIM1 assessed as percent of control at 50000 nM by qPCR analysis relative to control
Sequence of Serine/threonine-protein kinase pim-1 (Homo sapiens) (P11309 whole entry, looked up): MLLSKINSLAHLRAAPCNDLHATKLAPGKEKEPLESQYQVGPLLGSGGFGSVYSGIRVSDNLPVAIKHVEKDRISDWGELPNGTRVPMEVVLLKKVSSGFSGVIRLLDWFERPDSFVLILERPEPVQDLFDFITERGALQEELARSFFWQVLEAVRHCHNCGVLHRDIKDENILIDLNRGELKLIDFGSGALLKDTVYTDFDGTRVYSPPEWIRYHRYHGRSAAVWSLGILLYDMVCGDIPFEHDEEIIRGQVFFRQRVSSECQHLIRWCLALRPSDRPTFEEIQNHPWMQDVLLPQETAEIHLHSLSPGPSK

[7] = molecular target: Calcium/calmodulin-dependent protein kinase type IV (Homo sapiens) (UniProt Q16566); assay: Inhibition of DNA-tagged human CAMK4 assessed as percent of control at 50000 nM by qPCR analysis relative to control
Sequence of Calcium/calmodulin-dependent protein kinase type IV (Homo sapiens) (Q16566 whole entry): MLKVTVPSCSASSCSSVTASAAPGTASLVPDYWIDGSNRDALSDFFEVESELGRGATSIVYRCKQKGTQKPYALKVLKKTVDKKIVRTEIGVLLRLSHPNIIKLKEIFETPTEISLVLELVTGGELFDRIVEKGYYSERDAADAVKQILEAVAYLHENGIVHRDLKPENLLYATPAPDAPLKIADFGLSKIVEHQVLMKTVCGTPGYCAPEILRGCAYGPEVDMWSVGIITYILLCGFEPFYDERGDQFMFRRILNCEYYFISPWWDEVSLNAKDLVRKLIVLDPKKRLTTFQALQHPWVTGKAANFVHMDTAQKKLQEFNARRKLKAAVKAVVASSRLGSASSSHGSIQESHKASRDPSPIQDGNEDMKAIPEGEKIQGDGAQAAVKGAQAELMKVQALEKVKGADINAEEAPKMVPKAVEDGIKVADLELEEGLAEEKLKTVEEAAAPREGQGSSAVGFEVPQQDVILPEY

[8] = molecular target: Tyrosine-protein kinase Fer (Homo sapiens) (UniProt P16591); assay: Inhibition of DNA-tagged human FER assessed as percent of control at 50000 nM by qPCR analysis relative to control
Sequence of Tyrosine-protein kinase Fer (Homo sapiens) (P16591 whole entry, looked up): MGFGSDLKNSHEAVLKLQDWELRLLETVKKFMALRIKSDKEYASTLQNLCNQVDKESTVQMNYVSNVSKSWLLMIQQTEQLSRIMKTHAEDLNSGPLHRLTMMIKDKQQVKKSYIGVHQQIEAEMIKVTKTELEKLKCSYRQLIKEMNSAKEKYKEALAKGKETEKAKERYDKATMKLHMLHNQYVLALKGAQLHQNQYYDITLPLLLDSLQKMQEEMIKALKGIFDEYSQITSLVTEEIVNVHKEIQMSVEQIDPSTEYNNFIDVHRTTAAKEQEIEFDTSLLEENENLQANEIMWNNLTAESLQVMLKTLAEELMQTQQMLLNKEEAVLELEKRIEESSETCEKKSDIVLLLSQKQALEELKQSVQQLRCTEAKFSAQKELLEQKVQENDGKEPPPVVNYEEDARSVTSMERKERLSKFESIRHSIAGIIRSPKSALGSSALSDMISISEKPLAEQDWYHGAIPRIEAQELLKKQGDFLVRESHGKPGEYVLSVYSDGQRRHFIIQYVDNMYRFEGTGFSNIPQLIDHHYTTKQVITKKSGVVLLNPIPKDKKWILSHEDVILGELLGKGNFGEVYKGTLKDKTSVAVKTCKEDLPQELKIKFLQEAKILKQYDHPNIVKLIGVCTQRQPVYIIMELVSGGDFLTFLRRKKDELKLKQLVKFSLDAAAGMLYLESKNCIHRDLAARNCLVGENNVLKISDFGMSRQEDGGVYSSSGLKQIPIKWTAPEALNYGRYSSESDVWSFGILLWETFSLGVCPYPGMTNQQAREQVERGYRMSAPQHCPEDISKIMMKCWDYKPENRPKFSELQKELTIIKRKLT

[9] = tested on: Tyrosine-protein kinase ABL1 (Homo sapiens), P00519 [Q252H]; assay: Inhibition of DNA-tagged non-phosphorylated human ABL1 Q252H mutant assessed as percent of control at 50000 nM by qPCR analysis relative to control
[10] = molecular target: Tyrosine-protein kinase Fyn (Homo sapiens) (UniProt P06241); assay: Inhibition of DNA-tagged human FYN assessed as percent of control at 50000 nM by qPCR analysis relative to control
[11] = molecular target: Mitogen-activated protein kinase kinase kinase kinase 2 (Homo sapiens) (UniProt Q12851); assay: Inhibition of DNA-tagged human MAP4K2 assessed as percent of control at 50000 nM by qPCR analysis relative to control
[12] = molecular target: Myosin light chain kinase 2, skeletal/cardiac muscle (Homo sapiens) (UniProt Q9H1R3); assay: Inhibition of DNA-tagged human MYLK2 assessed as percent of control at 50000 nM by qPCR analysis relative to control
[13] = molecular target: Serine/threonine-protein kinase LATS2 (Homo sapiens) (UniProt Q9NRM7); assay: Inhibition of DNA-tagged human LATS2 assessed as percent of control at 50000 nM by qPCR analysis relative to control
Sequence of Serine/threonine-protein kinase LATS2 (Homo sapiens) (Q9NRM7 whole entry): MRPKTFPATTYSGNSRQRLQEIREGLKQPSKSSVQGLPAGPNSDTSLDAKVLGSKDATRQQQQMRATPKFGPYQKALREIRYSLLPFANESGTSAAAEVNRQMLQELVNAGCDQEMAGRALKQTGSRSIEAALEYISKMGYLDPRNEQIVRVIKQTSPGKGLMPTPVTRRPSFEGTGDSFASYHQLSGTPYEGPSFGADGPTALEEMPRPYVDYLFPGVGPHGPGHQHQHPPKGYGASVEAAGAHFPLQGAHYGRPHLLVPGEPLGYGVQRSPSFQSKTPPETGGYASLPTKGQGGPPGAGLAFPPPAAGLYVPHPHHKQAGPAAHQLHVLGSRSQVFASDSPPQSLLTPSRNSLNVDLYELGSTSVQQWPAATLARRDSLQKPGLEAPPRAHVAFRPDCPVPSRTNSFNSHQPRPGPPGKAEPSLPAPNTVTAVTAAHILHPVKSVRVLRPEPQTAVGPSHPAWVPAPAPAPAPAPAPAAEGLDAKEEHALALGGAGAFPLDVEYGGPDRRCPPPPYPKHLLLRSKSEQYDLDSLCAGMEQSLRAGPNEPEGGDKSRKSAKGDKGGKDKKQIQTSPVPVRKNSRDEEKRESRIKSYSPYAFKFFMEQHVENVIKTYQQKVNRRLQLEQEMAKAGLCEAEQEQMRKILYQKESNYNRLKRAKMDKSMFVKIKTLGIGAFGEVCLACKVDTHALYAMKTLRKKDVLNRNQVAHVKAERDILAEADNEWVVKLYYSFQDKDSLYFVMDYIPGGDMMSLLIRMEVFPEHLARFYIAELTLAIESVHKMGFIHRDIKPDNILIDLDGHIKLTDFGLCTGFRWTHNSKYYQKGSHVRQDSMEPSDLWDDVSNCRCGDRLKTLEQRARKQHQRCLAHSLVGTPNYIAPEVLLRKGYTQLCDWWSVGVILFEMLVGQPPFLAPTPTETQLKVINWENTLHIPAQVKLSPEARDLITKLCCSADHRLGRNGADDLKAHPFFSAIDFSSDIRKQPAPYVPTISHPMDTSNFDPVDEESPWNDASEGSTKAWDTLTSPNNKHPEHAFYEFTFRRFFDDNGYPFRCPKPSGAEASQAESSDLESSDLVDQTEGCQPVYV

[14] = molecular target: Serine/threonine-protein kinase Nek9 (Homo sapiens) (UniProt Q8TD19); assay: Inhibition of DNA-tagged human NEK9 assessed as percent of control at 50000 nM by qPCR analysis relative to control
[15] = molecular target: cAMP-dependent protein kinase catalytic subunit PRKX (Homo sapiens) (UniProt P51817); assay: Inhibition of DNA-tagged human PRKX assessed as percent of control at 50000 nM by qPCR analysis relative to control
[16] = molecular target: Cyclin-dependent kinase 4/cyclin D1 (Homo sapiens) (UniProt P11802+P24385); assay: Inhibition of DNA-tagged human CDK4/cyclin D1 assessed as percent of control at 50000 nM by qPCR analysis relative to control; assay type: protein-complex assay
[17] = tested on: Epidermal growth factor receptor (Homo sapiens), P00533 [G719S]; assay: Inhibition of DNA-tagged human EGFR G719S assessed as percent of control at 50000 nM by qPCR analysis relative to control
[18] = molecular target: Mitogen-activated protein kinase 7 (Homo sapiens) (UniProt Q13164); assay: Inhibition of DNA-tagged human ERK5 assessed as percent of control at 50000 nM by qPCR analysis relative to control
[19] = molecular target: Serine/threonine-protein kinase SBK1 (Homo sapiens) (UniProt Q52WX2); assay: Inhibition of DNA-tagged human SBK1 assessed as percent of control at 50000 nM by qPCR analysis relative to control
[20] = molecular target: Serine/threonine-protein kinase 38 (Homo sapiens) (UniProt Q15208); assay: Inhibition of DNA-tagged human NDR1 assessed as percent of control at 50000 nM by qPCR analysis relative to control
Sequence of Serine/threonine-protein kinase 38 (Homo sapiens) (Q15208 2-465 limits assumed): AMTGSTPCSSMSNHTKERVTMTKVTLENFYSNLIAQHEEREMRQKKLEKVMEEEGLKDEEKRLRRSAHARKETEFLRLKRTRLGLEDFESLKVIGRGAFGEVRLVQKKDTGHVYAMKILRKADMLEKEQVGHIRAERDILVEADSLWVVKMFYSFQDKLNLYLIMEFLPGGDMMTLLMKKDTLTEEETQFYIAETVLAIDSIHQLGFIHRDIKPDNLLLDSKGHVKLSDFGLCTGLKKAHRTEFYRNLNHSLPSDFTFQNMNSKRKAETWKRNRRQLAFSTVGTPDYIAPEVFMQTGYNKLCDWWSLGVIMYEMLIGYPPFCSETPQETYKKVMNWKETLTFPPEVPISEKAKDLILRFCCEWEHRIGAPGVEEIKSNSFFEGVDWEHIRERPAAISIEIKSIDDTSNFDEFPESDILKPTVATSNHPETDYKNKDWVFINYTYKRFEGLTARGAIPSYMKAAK

[21] = molecular target: Serine/threonine-protein kinase Nek4 (Homo sapiens) (UniProt P51957); assay: Inhibition of DNA-tagged human NEK4 assessed as percent of control at 50000 nM by qPCR analysis relative to control
[22] = molecular target: Dual specificity protein kinase CLK4 (Homo sapiens) (UniProt Q9HAZ1); assay: Inhibition of DNA-tagged human CLK4 assessed as percent of control at 50000 nM by qPCR analysis relative to control
[23] = molecular target: Serine/threonine-protein kinase ULK1 (Homo sapiens) (UniProt O75385); assay: Inhibition of DNA-tagged human ULK1 assessed as percent of control at 50000 nM by qPCR analysis relative to control
[24] = molecular target: Bone morphogenetic protein receptor type-1A (Homo sapiens) (UniProt P36894); assay: Inhibition of DNA-tagged human BMPR1A assessed as percent of control at 50000 nM by qPCR analysis relative to control
[25] = molecular target: Death-associated protein kinase 1 (Homo sapiens) (UniProt P53355); assay: Inhibition of DNA-tagged human DAPK1 assessed as percent of control at 50000 nM by qPCR analysis relative to control
[26] = tested on: Tyrosine-protein kinase ABL1 (Homo sapiens), P00519 [M351T]; assay: Inhibition of DNA-tagged phosphorylated human ABL1 M351T mutant assessed as percent of control at 50000 nM by qPCR analysis relative to control
[27] = molecular target: Serine/threonine-protein kinase D3 (Homo sapiens) (UniProt O94806); assay: Inhibition of DNA-tagged human PRKD3 assessed as percent of control at 50000 nM by qPCR analysis relative to control
Sequence of Serine/threonine-protein kinase D3 (Homo sapiens) (O94806 whole entry): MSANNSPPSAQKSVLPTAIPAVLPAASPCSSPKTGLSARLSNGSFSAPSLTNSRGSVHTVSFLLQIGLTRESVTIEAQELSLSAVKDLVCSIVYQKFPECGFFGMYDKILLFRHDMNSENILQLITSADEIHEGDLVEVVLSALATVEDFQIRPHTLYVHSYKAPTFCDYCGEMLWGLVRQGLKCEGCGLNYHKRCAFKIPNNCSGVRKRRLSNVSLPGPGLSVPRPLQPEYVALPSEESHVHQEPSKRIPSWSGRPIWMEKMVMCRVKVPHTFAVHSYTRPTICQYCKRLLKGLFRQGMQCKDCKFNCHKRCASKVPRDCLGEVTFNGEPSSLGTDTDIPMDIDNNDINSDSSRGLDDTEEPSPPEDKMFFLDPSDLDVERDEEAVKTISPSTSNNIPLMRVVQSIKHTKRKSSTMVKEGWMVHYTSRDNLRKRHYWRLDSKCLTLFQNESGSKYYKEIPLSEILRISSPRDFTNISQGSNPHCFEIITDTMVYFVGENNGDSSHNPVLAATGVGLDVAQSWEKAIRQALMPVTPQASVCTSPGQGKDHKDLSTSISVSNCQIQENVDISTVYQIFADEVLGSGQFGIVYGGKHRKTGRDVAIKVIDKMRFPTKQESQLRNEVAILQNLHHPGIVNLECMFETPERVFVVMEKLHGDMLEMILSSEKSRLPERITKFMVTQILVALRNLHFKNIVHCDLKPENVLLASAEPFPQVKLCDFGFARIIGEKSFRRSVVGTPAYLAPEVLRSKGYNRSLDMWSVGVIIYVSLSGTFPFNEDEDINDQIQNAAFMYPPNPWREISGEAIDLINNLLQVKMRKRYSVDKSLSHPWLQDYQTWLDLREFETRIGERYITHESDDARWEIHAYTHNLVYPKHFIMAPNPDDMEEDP

[28] = molecular target: cGMP-dependent protein kinase 1 (Homo sapiens) (UniProt Q13976); assay: Inhibition of DNA-tagged human PRKG1 assessed as percent of control at 50000 nM by qPCR analysis relative to control
[29] = molecular target: Death-associated protein kinase 2 (Homo sapiens) (UniProt Q9UIK4); assay: Inhibition of DNA-tagged human DAPK2 assessed as percent of control at 50000 nM by qPCR analysis relative to control
[30] = molecular target: Muscle, skeletal receptor tyrosine-protein kinase (Homo sapiens) (UniProt O15146); assay: Inhibition of DNA-tagged human MUSK assessed as percent of control at 50000 nM by qPCR analysis relative to control

Work on `CN1C(=O)/C(=C2/C(=O)Nc3ccccc32)c2ccccc21` yielded an Activity [1] of 100%, an Activity [2] of 99% and an Activity [3] of 87%. It also gave an Activity [4] of 92%, an Activity [5] of 89% and an Activity [6] of 83%. The Activity [7] was 88%, the Activity [8] was 88% and the Activity [9] was 100%. It also gave an Activity [10] of 100%, an Activity [11] of 92% and an Activity [12] of 94%. For the same compound, the Activity [13] was 90%, the Activity [14] was 33% and the Activity [15] was 100%. It also gave an Activity [16] of 81%, an Activity [17] of 94% and an Activity [18] of 97%. For the same compound, the Activity [19] was 100%, the Activity [20] was 87% and the Activity [21] was 86%. For the same compound, the Activity [22] was 100%, the Activity [23] was 68% and the Activity [24] was 100%. For the same compound, the Activity [25] was 86%, the Activity [26] was 73% and the Activity [27] was 94%. It also gave an Activity [28] of 95%, an Activity [29] of 85% and an Activity [30] of 86%.
